Here are results for 2 molecules from ChEMBL document CHEMBL5352478, “Novel pyridine-containing histone deacetylase inhibitors strongly arrest proliferation, induce apoptosis and modulate miRNAs in cancer cells” (Eur J Med Chem, 2023).

Assay [1] deals with U-937. The assay can be described thus: Induction of cell cycle arrest in human U-937 cells assessed as cell death at 5 uM for 48 hrs by PI staining based flow cytometric analysis. Format: functional. (In flow cytometry, cells or beads pass a laser one at a time.)
Assay [2] concerns the target T1, Protein deacetylase HDAC6 (Homo sapiens, UniProt Q9UBN7).
T1 sequence (Q9UBN7 whole entry): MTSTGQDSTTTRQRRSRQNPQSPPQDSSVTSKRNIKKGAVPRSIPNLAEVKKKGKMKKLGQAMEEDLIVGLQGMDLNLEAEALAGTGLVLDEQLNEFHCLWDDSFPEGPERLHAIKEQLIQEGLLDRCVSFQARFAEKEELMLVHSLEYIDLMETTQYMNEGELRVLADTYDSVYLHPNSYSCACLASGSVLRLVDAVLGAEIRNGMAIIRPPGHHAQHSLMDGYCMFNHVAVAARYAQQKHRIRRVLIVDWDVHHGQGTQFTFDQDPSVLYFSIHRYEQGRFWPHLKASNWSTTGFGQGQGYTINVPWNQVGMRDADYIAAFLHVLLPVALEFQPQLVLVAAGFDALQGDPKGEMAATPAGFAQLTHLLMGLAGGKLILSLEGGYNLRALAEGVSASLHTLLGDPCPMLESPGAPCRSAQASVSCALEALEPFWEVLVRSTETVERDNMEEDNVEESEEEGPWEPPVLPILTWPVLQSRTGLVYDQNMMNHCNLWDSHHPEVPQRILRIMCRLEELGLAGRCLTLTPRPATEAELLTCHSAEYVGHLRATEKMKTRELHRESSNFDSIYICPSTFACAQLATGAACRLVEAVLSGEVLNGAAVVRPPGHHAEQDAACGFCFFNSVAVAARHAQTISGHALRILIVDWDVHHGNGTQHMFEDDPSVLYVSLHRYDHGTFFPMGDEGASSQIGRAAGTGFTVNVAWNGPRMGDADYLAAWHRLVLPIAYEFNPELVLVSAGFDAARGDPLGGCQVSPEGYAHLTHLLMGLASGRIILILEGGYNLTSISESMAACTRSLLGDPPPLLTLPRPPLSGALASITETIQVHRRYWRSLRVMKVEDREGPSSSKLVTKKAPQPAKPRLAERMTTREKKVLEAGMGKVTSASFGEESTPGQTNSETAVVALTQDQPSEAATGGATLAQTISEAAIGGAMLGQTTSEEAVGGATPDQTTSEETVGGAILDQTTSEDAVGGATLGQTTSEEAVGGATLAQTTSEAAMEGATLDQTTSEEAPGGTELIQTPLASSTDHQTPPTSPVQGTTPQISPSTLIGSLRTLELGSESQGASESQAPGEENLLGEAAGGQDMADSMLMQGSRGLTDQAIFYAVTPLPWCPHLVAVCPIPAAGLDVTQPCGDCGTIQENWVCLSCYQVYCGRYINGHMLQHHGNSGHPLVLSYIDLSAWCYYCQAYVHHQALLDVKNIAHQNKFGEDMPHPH
As to conditions: read-out: IC50.

Assay [3] deals with U-937. The assay can be described thus: Induction of cell cycle arrest in human U-937 cells assessed as accumulation of cells in pre-G1 phase at 5 uM for 48 hrs by PI staining based flow cytometric analysis. It counts as functional.
Assay [4] concerns U-937. The assay can be described thus: Induction of cell cycle arrest in human U-937 cells assessed as accumulation of cells in pre-G1 phase at 5 uM for 24 hrs by PI staining based flow cytometric analysis. It counts as functional.
Assay [5] deals with U-937. The assay is described as follows: Induction of cell cycle arrest in human U-937 cells assessed as accumulation of cells in G2/M phase at 1 uM for 24 hrs by PI staining based flow cytometric analysis. Format: functional.
A further assay deals with HCT-116. The assay is described as follows: cells. It counts as functional, cell-based. Particulars: Homo sapiens, HCT-116, 72 h.
Assay [6] concerns K562. The assay is described as follows: cells. Particulars: Homo sapiens, K562, 72 h. Format: functional, cell-based.
Assay [7] has as its system K562. The assay can be described thus: Potency index, ratio of SAHA IC50 to test compound IC50 for antiproliferative activity against human K562 cell. It counts as functional.
A further assay concerns A549. The assay can be described thus: cells. It counts as functional, cell-based. Particulars: Homo sapiens, A549, 72 h.
Assay [8] relates to U-937. The assay is described as follows: Induction of cell cycle arrest in human U-937 cells assessed as accumulation of cells in G1 phase at 1 to 5 uM for 48 hrs by PI staining based flow cytometric analysis. As to conditions: dose 1-5 µM. It counts as functional.
For assay [9], the system named is U-937. The assay is described as follows: Induction of cell cycle arrest in human U-937 cells assessed as accumulation of cells in pre-G1 phase at 1 uM for 48 hrs by PI staining based flow cytometric analysis. Format: functional.
For assay [10], the system named is U-937. The assay can be described thus: Induction of cell cycle arrest in human U-937 cells assessed as accumulation of cells in G1 phase at 5 uM for 48 hrs by PI staining based flow cytometric analysis. It counts as functional.

On to `O=C(/C=C/c1ccc(NC(=O)C(Cc2ccccc2)c2ccccc2)cn1)NO` (stereo not given), for which the Activity is on record as 76% in the assay on U-937 [1]; 40% with U-937 [3]; 10% with U-937 [4]; 60% in the assay on U-937 [5]; 70% with U-937 [8]; 40% in the assay on U-937 [9]. Further, the IC50 – broadly, the concentration at which inhibition is half-maximal – in [2] came to 11 nM; with HCT-116, 70 nM; in the assay on K562 [6], 40 nM; with A549, 220 nM. Also, in the assay on K562 [7], the “Ratio IC50” value was 10.
Turning to `Nc1ccccc1NC(=O)c1ccc(CNC(=O)OCc2cccnc2)cc1` [ENTINOSTAT], the Activity with U-937 [10] amounted to 70%. In addition, the IC50 was determined as 1060 nM in the assay on HCT-116, 570 nM in the assay on K562 [6] and 2250 nM in the assay on A549.
